# System: dyslipidemic patients with or without statin
# Assay: Example 4 pooled analysis of phase 2 and 3 studies: safety parameters
# Type: in vivo, human
# Conditions: Without Statin
# Procedure: The present study analyzed data combined from 6 randomized double-blind placebo-controlled studies that were conducted in Japan and continued for 12 weeks unless otherwise noted: a phase 2 study in 224 patients with a history of documented dyslipidemia and plasma TG of 200 mg/dL (2.26 mmol/L) or higher, randomized to placebo, pemafibrate 0.05, 0.1, 0.2, 0.4 mg/day, or fenofibrate 100 mg/day; a phase 3 study in 526 patients with dyslipidemia, high TG levels, and low HDL-C levels, randomized to placebo, pemafibrate 0.1, 0.2, or 0.4 mg/day, or fenofibrate 100 or 200 mg/day; a study in 188 patients with dyslipidemia, randomized to pitavastatin in combination with pemafibrate 0.1, 0.2, or 0.4 mg/day; a 24-week study in 423 patients with dyslipidemia, randomized to pemafibrate 0.2 mg/day (fixed dose) or 0.2 [0.4] mg/day (conditional up-titration) with any statin; a 24-week phase 3 study in 166 patients with type 2 diabetes and hypertriglyceridemia, randomized to placebo or pemafibrate 0.2 or 0.4 mg/day; and a study in 27 patients with hypertriglyceridemia and insulin resistance, randomized to pemafibrate 0.4 mg/day or placebo. All studies were approved by the Institutional Review Board for each study institution and were conducted in accordance with the Declaration of Helsinki and under the guidelines of Good Clinical Practice.
# In this study, we evaluated the efficacy and safety of pemafibrate at doses of 0.1 mg/day, 0.2 mg/day, and 0.4 mg/day, with and without statin. The primary efficacy endpoint was percent change in TG from baseline to 12 weeks. The secondary efficacy endpoints were also assessed from baseline to 12 weeks: percent change in HDL-C, LDL-C, non-HDL-C, TC, RemL-C, Apo AI, Apo AII, Apo B, Apo B48, Apo CII, Apo CIII, Apo CIII/Apo CII, and Apo E; percent change in HPLC findings for CM-C, VLDL-C, cholesterol content in 4 subclasses of LDL (large, medium, small, and very small LDLs), and cholesterol content for 5 subclasses of HDL (very large, large, medium, small, and very small HDLs); and changes in fibrinogen and FGF21. The primary safety endpoints were the incidence of adverse events and adverse drug reactions. Secondary safety endpoints were percentage of values above the upper limit of normal range for AST, ALT, sCr and CK, and change in sCr eGFR, CK, AST, ALT, gamma-glutamyl transferase (γ-GT), alkaline phosphatase (ALP), and total bilirubin.
# Patients with renal dysfunction were defined as those with baseline eGFR<60 mL/min/1.73 m^2. Analysis was stratified by the presence or absence of renal dysfunction in the concomitant statin group, and efficacy and safety of pemafibrate were evaluated. In efficacy and safety evaluations excluding AEs, ADRs, and cutoff values for AST, ALT, sCr, and CK, findings were combined for pemafibrate subgroups receiving doses of 0.1 mg/day, 0.2 mg/day, and 0.4 mg/day.
# For each lipid parameter, gel filtration HPLC was performed at Skylight Biotech, Inc. Other measurements were performed at LSI Medience Corporation. The FAS was used for analyzing efficacy parameters of effects on lipids, fibrinogen, and FGF21. The safety analysis set was used for safety parameters and included all patients who received at least one dose of the study drug. For lipid parameters, fibrinogen, and FGF21, LS means (95% confidence interval) were calculated at Week 12 (LOCF) using analysis of covariance (ANCOVA) with baseline values as the co-variable within each category. For safety parameters, LS means (95% confidence interval) were calculated at Week 12 using ANCOVA with baseline values as the co-variable within each category. SAS version 9.2 was used for analyses.
structure (smiles),measurement,setting,value
"CC[C@@H](Oc1cccc(CN(CCCOc2ccc(OC)cc2)c2nc3ccccc3o2)c1)C(=O)O [Pemafibrate, (2R)-2-[3-({1,3-benzoxazol-2-yl[3-(4-methoxyphenoxy)propyl]amino}methyl)phenoxy]butanoic acid]","ADE Leading to withdrawal, number of patients","0.1 mg/day, n=82",1
same,"ADE Leading to withdrawal, percentage of patients","0.1 mg/day, n=82",(1.2) percentage
same,"ADE Serious, number of patients","0.1 mg/day, n=82",0
same,"ADE Total, number of patients","0.1 mg/day, n=82",3
same,"ADE Total, percentage of patients","0.1 mg/day, n=82",(3.7) percentage
same,"AE Leading to withdrawal, number of patients","0.1 mg/day, n=82",2
same,"AE Leading to withdrawal, percentage of patients","0.1 mg/day, n=82",(2.4) percentage
same,"AE Serious, number of patients","0.1 mg/day, n=82",1
same,"AE Serious, percentage of patients","0.1 mg/day, n=82",(1.2) percentage
same,"AE Total, number of patients","0.1 mg/day, n=82",27
same,"AE Total, percentage of patients","0.1 mg/day, n=82",(32.9) percentage
same,"ALT ≥ ULN × 3, number of patients","0.1 mg/day, n=82",0
same,"AST ≥ ULN × 3, number of patients","0.1 mg/day, n=82",0
same,"CK ≥ 2.5 and < ULN × 5, number of patients","0.1 mg/day, n=82",2
same,"CK ≥ 2.5 and < ULN × 5, percentage of patients","0.1 mg/day, n=82",(2.4) percentage
same,"CK ≥ 5 and < ULN × 10, number of patients","0.1 mg/day, n=82",0
same,"CK ≥ ULN × 10, number of patients","0.1 mg/day, n=82",0
same,"sCr ≥ ULN, number of patients","0.1 mg/day, n=82",15
same,"sCr ≥ ULN, percentage of patients","0.1 mg/day, n=82",(18.3) percentage
same,"ADE Leading to withdrawal, number of patients","0.2 mg/day, n=202",2
same,"ADE Leading to withdrawal, percentage of patients","0.2 mg/day, n=202",(1.0) percentage
same,"ADE Serious, number of patients","0.2 mg/day, n=202",1
same,"ADE Serious, percentage of patients","0.2 mg/day, n=202",(0.5) percentage
same,"ADE Total, number of patients","0.2 mg/day, n=202",14
same,"ADE Total, percentage of patients","0.2 mg/day, n=202",(6.9) percentage
same,"AE Leading to withdrawal, number of patients","0.2 mg/day, n=202",3
same,"AE Leading to withdrawal, percentage of patients","0.2 mg/day, n=202",(1.5) percentage
same,"AE Serious, number of patients","0.2 mg/day, n=202",4
same,"AE Serious, percentage of patients","0.2 mg/day, n=202",(2.0) percentage
same,"AE Total, number of patients","0.2 mg/day, n=202",78
same,"AE Total, percentage of patients","0.2 mg/day, n=202",(38.6) percentage
same,"ALT ≥ ULN × 3, number of patients","0.2 mg/day, n=202",0
same,"AST ≥ ULN × 3, number of patients","0.2 mg/day, n=202",0
same,"CK ≥ 2.5 and < ULN × 5, number of patients","0.2 mg/day, n=202",3
same,"CK ≥ 2.5 and < ULN × 5, percentage of patients","0.2 mg/day, n=202",(1.5) percentage
same,"CK ≥ 5 and < ULN × 10, number of patients","0.2 mg/day, n=202",0
same,"CK ≥ ULN × 10, number of patients","0.2 mg/day, n=202",0
same,"sCr ≥ ULN, number of patients","0.2 mg/day, n=202",34
same,"sCr ≥ ULN, percentage of patients","0.2 mg/day, n=202",(16.8) percentage
same,"ALT ≥ ULN × 3, number of patients","0.4 mg/day, n=173",0
same,"AST ≥ ULN × 3, number of patients","0.4 mg/day, n=173",1
same,"AST ≥ ULN × 3, percentage of patients","0.4 mg/day, n=173",(0.6) percentage
same,"CK ≥ 2.5 and < ULN × 5, number of patients","0.4 mg/day, n=173",0
same,"CK ≥ 5 and < ULN × 10, number of patients","0.4 mg/day, n=173",1
same,"CK ≥ 5 and < ULN × 10, percentage of patients","0.4 mg/day, n=173",(0.6) percentage
same,"CK ≥ ULN × 10, number of patients","0.4 mg/day, n=173",1
same,"CK ≥ ULN × 10, percentage of patients","0.4 mg/day, n=173",(0.6) percentage
same,"sCr ≥ ULN, number of patients","0.4 mg/day, n=173",22
same,"sCr ≥ ULN, percentage of patients","0.4 mg/day, n=173",(12.7) percentage
same,"ADE Leading to withdrawal, number of patients","0.4 mg/day, n=174",3
same,"ADE Leading to withdrawal, percentage of patients","0.4 mg/day, n=174",(1.7) percentage
same,"ADE Serious, number of patients","0.4 mg/day, n=174",1
same,"ADE Serious, percentage of patients","0.4 mg/day, n=174",(0.6) percentage
same,"ADE Total, number of patients","0.4 mg/day, n=174",16
same,"ADE Total, percentage of patients","0.4 mg/day, n=174",(9.2) percentage
same,"AE Leading to withdrawal, number of patients","0.4 mg/day, n=174",6
same,"AE Leading to withdrawal, percentage of patients","0.4 mg/day, n=174",(3.4) percentage
same,"AE Serious, number of patients","0.4 mg/day, n=174",2
same,"AE Serious, percentage of patients","0.4 mg/day, n=174",(1.1) percentage
same,"AE Total, number of patients","0.4 mg/day, n=174",60
same,"AE Total, percentage of patients","0.4 mg/day, n=174",(34.5) percentage

# Reference: patent US11446282B2, “Methods of treating mixed dyslipidemia and hypertriglycertdemia” (Kowa Company, Ltd., priority 2017, dated 2022)
